Format in all cases: cell-based
One assay relates to S. lutea. Nature of the assay: antibacterial activity vs. S. lutea. Particulars: level relative to phthalimidopenicillin. The method, then: The compound was dissolved in methylene chloride and the solution extracted with 5% sodium bicarbonate. The aqueous extract was re-acidified to pH 2.5 and re-extracted with methylene chloride.
The crystalline trans acid in methylene chloride, was shaken with 5% bicarbonate for 5 min. The aqueous phase was then separated, acidified to pH 4.5 - 5.0 and extracted with methylene chloride. It was then acidifid to pH 2.5 and extracted twice with methylene chloride and twice with chloroform.

Another assay concerns Sal. enteritidis. In words: MIC, antibacterial activity. The following applies: Salmonella enterica, at 10^-^4 dil'n.
Another assay deals with Pr. morganii. Nature of the assay: MIC, antibacterial activity. The following applies: Morganella morganii; at 10^-^4 dil'n.
A further assay deals with Ser. marcescens. In words: MIC, antibacterial activity. The following applies: Serratia marcescens; at 10^-^4 dil'n.
In a further assay the test system is E. coli Juhl. Nature of the assay: MIC, antibacterial activity. The following applies: Escherichia coli; at 10^-^4 dil'n.
Another assay has as its system Str. pyogenes. Nature of the assay: MIC, antibacterial activity. Particulars: Streptococcus pyogenes; + 5% serum; 45% AAB at 10^-^3 dil'n + 50% Medium Shown. The text has this: (§1) *45% AAB at 10^-^3 dil'n + 50% Medium Shown
A further assay relates to D. pneumoniae. Nature of the assay: MIC, antibacterial activity. The following applies: Streptococcus pneumoniae; + 5% serum; 45% AAB at 10^-^3 dil'n + 50% Medium Shown.
From the text: as §1

Another assay concerns Pr. mirabilis. In words: MIC, antibacterial activity. Particulars: Proteus mirabilis; at 10^-^4 dil'n.
The subject of the next assay is S. aureus Meth. Resist. In words: MIC, antibacterial activity. The following applies: Staphylococcus aureus.
Another assay relates to K. pneumoniae. Nature of the assay: MIC, antibacterial activity. The following applies: Klebsiella pneumoniae; at 10^-^4 dil'n.
The test system of a further assay is S. aureus Smith. In words: MIC, antibacterial activity. The following applies: Staphylococcus aureus.
For another assay, the system named is S. aureus. Nature of the assay: MIC, antibacterial activity. Particulars: Staphylococcus aureus.
Another assay deals with Ps. aeruginosa. In words: MIC, antibacterial activity. The following applies: Pseudomonas aeruginosa; at 10^-^4 dil'n.
Another assay deals with E. coli. Nature of the assay: MIC, antibacterial activity. The following applies: Escherichia coli; at 10^-^4 dil'n.
A further assay has as its system S. aureus BX-1633-2. In words: MIC, antibacterial activity. Particulars: Staphylococcus aureus.
For assay [1], the system named is P. morganii and Ps. aeruginosa. In words: MIC of ampicillin versus resistant or β-lactamase producing bacteria, alone and with substituted azetidine-2-one. The following applies: read-out: Minimum Inhibitory Concentration of ampicillin.
Assay [2] in a line: antibacterial activity (organism not stated). The following applies: at levels of 250 mcg./ml.

These results are taken from patent US3948927A, “2,2-Dimethyl-3R-carboxy-6S-amino-1-oxa-4-aza-5R-bicyclo-[3,2,0]heptan-7-o ne” (Queen's University, priority 1974, dated 1976).

≈ marks a conversion by molar mass, not a printed value. A value given as a limit tells only on which side of the number the result lay.

In the case of `CC1(C)O[C@@H]2[C@H](N3C(=O)c4ccccc4C3=O)C(=O)N2[C@H]1C(=O)O` [6-phthalimido oxapenicillin], the “antibacterial activity relative to phthalimidopenicillin” value with S. lutea is listed as “one-tenth the level of phthalimidopenicillin”.

Consider `CC1(C)S[C@@H]2[C@H](NC(=O)Cc3ccccc3)C(=O)N2[C@H]1C(=O)O` [Penicillin G], for which the MIC with Sal. enteritidis is 0.13 µg/mL (≈ 0.389 µM); with Pr. morganii, above 125 µg/mL; in the assay with Ser. marcescens, above 125 µg/mL; against E. coli Juhl, 32 µg/mL (≈ 95.7 µM); in the assay on Str. pyogenes, 4 ng/mL; with D. pneumoniae, 4 ng/mL. Besides, the MIC is 1 µg/mL (≈ 2.99 µM) against Pr. mirabilis; 125 µg/mL (≈ 374 µM) in the assay with S. aureus Meth. Resist.; 2 µg/mL (≈ 5.98 µM) against K. pneumoniae; 0.016 µg/mL (≈ 0.0478 µM) against S. aureus Smith (at 10^-^4 dil'n); 0.06 µg/mL in the assay on S. aureus Smith (at 10^-^4 dil'n + 5% serum); above 125 µg/mL against S. aureus (at 10^-^2 dil'n). Moreover, the MIC against S. aureus (at 10^-^3 dil'n) was 63 µg/mL (≈ 188 µM); in the assay on Ps. aeruginosa it was above 125 µg/mL; against E. coli, 125 µg/mL (≈ 374 µM); in the assay on S. aureus BX-1633-2 (BX16332, at 10^-^2 dil'n) it was above 125 µg/mL; in the assay on S. aureus BX-1633-2 (BX16332, at 10^-^3 dil'n), 125 µg/mL (≈ 374 µM).

For the compound `CC1(C)S[C@@H]2[C@H](NC(=O)[C@H](N)c3ccccc3)C(=O)N2[C@H]1C(=O)O` [ampicillin], the MIC in assay [1] was in the range of 500 to 1000 µg/mL.

Take `CC(C)=C(C(=O)O)N1C(=O)[C@H]2N=C(Cc3ccccc3)O[C@H]21` [oxazoline carboxylic acid, 2-benzyl-6-(1'-carboxy-2'-methylprop-1'-enyl)-1-oxa-3,6-diaza-4S,5R-bicyclo [3,2,0] hept-2-en-7-one]: the “activity as an antibacterial agent” value in assay [2] is “inactive”.
